Test results reported in ChEMBL document CHEMBL5653631, “A Potent and Selective ULK1 Inhibitor Suppresses Autophagy and Sensitizes Cancer Cells to Nutrient Stress” (iScience, 2018).

Tests used:
[1] = molecular target: T1, Serine/threonine-protein kinase ULK2 (Homo sapiens) (UniProt Q8IYT8); experiment: Inhibition of human recombinant ULK2 at 40 nM in presence of ATP by radiometric assay relative to control
T1 sequence (whole entry): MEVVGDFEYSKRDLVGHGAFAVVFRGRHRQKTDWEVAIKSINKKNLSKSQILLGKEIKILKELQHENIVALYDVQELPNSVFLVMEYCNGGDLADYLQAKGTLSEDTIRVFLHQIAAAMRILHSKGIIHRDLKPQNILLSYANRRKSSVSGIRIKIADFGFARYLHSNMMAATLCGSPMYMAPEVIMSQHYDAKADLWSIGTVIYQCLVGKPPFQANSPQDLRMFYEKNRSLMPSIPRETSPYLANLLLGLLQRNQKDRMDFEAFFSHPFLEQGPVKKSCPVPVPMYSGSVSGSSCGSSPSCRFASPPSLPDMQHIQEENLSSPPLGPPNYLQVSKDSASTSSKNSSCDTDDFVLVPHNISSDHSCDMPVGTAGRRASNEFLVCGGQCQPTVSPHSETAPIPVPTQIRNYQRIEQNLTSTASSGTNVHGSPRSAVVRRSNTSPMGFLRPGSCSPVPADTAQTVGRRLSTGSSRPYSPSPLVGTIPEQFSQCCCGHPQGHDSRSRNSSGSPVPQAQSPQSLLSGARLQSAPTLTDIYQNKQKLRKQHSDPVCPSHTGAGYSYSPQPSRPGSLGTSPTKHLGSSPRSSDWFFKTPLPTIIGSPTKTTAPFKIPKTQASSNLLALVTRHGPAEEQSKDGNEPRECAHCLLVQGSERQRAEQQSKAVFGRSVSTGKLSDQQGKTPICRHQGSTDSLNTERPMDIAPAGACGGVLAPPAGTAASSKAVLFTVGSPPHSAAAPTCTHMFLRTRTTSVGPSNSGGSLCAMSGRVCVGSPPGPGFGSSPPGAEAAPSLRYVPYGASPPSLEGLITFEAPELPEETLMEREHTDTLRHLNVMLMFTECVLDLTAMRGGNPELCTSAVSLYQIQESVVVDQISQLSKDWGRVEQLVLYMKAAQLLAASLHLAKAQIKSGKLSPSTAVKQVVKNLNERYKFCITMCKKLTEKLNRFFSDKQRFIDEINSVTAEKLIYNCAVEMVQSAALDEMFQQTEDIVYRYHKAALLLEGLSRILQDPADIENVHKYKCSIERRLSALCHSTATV

[2] = molecular target: T2, Serine/threonine-protein kinase BRSK2 (Homo sapiens) (UniProt Q8IWQ3); experiment: Inhibition of human recombinant BRSK2 at 40 nM related to control ULK1
T2 sequence (whole entry): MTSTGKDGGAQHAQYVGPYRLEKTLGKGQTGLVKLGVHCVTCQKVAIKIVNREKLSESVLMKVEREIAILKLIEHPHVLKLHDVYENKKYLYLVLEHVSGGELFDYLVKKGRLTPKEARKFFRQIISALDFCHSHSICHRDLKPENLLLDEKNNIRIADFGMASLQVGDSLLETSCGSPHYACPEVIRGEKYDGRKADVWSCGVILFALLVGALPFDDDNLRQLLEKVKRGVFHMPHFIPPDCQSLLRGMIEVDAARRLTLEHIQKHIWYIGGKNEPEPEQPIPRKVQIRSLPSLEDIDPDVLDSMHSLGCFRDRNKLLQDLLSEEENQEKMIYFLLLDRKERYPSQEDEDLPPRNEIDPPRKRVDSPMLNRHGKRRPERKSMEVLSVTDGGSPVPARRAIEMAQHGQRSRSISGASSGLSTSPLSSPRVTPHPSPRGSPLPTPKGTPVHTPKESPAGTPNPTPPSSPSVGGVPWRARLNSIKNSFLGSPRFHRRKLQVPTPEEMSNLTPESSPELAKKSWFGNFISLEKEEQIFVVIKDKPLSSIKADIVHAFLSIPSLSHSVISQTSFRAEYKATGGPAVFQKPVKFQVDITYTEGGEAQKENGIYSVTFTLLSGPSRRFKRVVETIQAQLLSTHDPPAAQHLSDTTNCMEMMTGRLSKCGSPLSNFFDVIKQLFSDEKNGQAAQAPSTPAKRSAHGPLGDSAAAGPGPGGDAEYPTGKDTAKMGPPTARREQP

[3] = molecular target: Glycogen synthase kinase-3 beta (Homo sapiens) (UniProt P49841); experiment: Inhibition of human recombinant GSK3B at 40 nM related to control ULK1
Chain of Glycogen synthase kinase-3 beta (Homo sapiens) (P49841 whole entry, looked up): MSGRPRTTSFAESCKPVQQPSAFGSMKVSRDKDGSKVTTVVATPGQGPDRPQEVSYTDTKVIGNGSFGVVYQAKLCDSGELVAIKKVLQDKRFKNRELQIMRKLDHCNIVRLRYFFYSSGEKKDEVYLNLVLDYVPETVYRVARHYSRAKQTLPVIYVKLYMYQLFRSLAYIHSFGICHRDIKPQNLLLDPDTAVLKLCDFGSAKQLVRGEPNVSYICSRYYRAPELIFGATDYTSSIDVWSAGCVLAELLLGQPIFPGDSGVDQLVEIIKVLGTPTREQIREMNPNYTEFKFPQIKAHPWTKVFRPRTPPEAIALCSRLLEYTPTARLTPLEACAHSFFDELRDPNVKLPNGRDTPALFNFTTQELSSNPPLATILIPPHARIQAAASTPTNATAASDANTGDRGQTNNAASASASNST

[4] = molecular target: MAP kinase-activated protein kinase 3 (Homo sapiens) (UniProt Q16644); experiment: Inhibition of human recombinant MAPKAPK3 at 500 nM in presence of ATP by radiometric assay relative to control
Chain of MAP kinase-activated protein kinase 3 (Homo sapiens) (Q16644 whole entry, looked up): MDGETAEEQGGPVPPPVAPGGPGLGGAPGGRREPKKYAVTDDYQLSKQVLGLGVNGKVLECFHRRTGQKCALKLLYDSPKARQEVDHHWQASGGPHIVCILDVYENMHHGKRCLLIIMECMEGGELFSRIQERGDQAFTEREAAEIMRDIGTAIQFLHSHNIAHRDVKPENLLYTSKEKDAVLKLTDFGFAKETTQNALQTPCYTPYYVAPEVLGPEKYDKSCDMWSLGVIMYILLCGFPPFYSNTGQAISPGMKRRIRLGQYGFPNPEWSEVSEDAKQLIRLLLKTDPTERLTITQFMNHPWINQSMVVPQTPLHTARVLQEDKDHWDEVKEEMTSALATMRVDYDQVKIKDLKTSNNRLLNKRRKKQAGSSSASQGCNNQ

[5] = molecular target: Insulin receptor-related protein (Homo sapiens) (UniProt P14616); experiment: Inhibition of human recombinant IRR at 500 nM in presence of ATP by radiometric assay relative to control
Chain of Insulin receptor-related protein (Homo sapiens) (P14616 27-742 limits assumed): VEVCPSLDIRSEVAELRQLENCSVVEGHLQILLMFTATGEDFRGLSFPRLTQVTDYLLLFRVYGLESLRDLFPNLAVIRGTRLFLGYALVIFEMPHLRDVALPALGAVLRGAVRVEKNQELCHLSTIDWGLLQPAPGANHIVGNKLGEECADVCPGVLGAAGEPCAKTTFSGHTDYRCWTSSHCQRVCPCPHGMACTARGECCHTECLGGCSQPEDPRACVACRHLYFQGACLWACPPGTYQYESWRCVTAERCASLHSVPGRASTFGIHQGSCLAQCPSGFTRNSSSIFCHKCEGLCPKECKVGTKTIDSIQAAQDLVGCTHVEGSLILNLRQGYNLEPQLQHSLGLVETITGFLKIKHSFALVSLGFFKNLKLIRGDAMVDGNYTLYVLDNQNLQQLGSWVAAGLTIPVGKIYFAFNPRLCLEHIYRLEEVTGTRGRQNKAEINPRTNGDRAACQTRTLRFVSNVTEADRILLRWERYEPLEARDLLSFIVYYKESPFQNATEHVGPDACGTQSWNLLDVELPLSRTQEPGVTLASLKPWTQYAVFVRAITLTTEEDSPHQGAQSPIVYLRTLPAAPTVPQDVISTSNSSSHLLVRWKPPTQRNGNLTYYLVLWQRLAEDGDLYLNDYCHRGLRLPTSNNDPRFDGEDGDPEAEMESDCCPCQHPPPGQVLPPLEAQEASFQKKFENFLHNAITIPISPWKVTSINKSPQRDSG
Chain of Insulin receptor-related protein (Homo sapiens) (P14616 747-1297 limits assumed): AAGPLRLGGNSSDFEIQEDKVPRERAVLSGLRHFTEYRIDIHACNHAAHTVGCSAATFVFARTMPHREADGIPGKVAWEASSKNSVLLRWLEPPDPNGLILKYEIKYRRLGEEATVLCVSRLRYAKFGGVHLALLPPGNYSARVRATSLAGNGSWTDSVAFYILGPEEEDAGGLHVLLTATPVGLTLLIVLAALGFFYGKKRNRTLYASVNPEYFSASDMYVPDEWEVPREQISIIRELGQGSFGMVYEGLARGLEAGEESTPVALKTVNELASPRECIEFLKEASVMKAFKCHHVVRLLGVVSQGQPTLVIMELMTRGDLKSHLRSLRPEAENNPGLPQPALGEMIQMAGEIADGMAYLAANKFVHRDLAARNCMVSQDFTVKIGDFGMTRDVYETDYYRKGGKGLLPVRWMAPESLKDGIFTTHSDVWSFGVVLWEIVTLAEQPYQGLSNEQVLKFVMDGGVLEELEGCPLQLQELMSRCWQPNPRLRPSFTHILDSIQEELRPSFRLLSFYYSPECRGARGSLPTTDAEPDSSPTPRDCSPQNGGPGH

[6] = molecular target: Cyclin-dependent kinase 9 (Homo sapiens) (UniProt P50750); experiment: Inhibition of human recombinant CDK9 at 500 nM in presence of ATP by radiometric assay relative to control
Chain of Cyclin-dependent kinase 9 (Homo sapiens) (P50750 whole entry): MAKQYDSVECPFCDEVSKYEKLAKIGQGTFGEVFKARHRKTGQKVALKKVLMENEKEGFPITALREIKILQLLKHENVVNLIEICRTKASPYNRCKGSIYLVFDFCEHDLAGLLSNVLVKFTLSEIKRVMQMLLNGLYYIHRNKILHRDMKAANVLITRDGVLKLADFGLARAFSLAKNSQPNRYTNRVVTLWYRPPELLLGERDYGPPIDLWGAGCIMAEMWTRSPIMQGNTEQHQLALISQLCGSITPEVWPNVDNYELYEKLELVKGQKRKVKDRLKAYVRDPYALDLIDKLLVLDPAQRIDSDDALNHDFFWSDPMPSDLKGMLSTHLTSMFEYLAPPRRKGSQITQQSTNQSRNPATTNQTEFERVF

[7] = molecular target: Serine/threonine-protein kinase 35 (Homo sapiens) (UniProt Q8TDR2); experiment: Inhibition of human recombinant CLIK1 at 15 nM related to control ULK1
Chain of Serine/threonine-protein kinase 35 (Homo sapiens) (Q8TDR2 whole entry): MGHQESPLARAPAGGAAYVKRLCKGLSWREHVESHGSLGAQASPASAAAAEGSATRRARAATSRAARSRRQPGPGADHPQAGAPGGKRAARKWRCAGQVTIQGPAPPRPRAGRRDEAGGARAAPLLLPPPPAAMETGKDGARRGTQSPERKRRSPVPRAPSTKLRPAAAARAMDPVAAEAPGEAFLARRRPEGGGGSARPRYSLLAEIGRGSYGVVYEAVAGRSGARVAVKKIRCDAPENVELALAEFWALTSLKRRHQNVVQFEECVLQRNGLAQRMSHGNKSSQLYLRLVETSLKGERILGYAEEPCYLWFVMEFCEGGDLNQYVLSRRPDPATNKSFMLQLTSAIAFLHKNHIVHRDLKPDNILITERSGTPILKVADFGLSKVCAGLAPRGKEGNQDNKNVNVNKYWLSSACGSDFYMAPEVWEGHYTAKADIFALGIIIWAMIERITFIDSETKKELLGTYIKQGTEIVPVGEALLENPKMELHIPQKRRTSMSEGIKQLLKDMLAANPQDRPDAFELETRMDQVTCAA

[8] = molecular target: cAMP-dependent protein kinase catalytic subunit beta (Homo sapiens) (UniProt P22694); experiment: Inhibition of human recombinant PKACbeta at 15 nM in presence of ATP by radiometric assay relative to control

## O=C(N[C@@H](C1CC1)C(F)(F)F)c1cc(-c2cnn3cc(-c4ccc(F)cc4)cnc23)cs1
[1]
  inhibition: 46%
[2]
  fold change (FC): 0
[3]
  fold change (FC): 0

## CNC(=O)c1ccccc1Oc1nc(Nc2cc(OC)c(OC)c(OC)c2)ncc1Br
[4]
  inhibition: 0%
[5]
  inhibition: 9%
[6]
  inhibition: 3%

## CC(C)[C@H](NC(=O)c1cc(-c2cnn3cc(-c4ccc(OCCN5CCCCC5)cc4)cnc23)cs1)C(F)(F)F
[7]
  fold change (FC): 0.1
[8]
  inhibition: 0%
